For series [1], the system named is Diet Induced Obese (DIO) C57BL/6 mice. Briefly: 10 day DIO mouse model (body weight, food intake, hematology, blood chemistry). The class given is in vivo. As to conditions: 240 h, read-out: DIO Mouse 10-day weight loss vs vehicle; for inhibition in vivo at 1 mg/kg: 1.0 mpk sc. In a few lines: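 DIO C57BL/6 mice on 60% kcal fat diet received compounds subcutaneously once daily for 10 days at 1.0, 0.5, 0.3, 0.1 or 0.03 mpk, in 10% DMSO in water, after 3-day vehicle acclimation. Body weight and food intake were recorded daily. Hematology and blood chemistry were taken on Day 11, 24 h post-final dose.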

Series [2] relates to pregnant Sprague Dawley rats (embryo/fetal development). From the text:
Study Summary Rat Embryofetal:
The objective of this study design was to evaluate the potential effects of disclosed compounds on embryo/fetal development when given subcutaneously to pregnant rats once every three days during the critical period of organogenesis (Gestation Days 6-18). Female, Sprague Dawley rats, approximately 10 weeks of age, time bred, were ordered from a certified vendor and housed individually housed in stainless steel cages suspended over flush pans, on a 12-hour light-dark cycle (0700-1900) at 20-26° C. and 30-70% humidity. Rats were fed a standard rodent chow and provided water ad libitum. Rats were received and housed in the facility for a period of approximately 1 to 2 days.
Compounds were formulated using 100% DMSO mixed in Sterile Water for Injection, resulting in 2% DMSO solution in water. If necessary, due to limited solubility of a test article, a higher percentage of DMSO solution in water was used. Groups of 8 mated and presumed pregnant female rats were given subcutaneous doses of vehicle or test article, once every three days, beginning on Gestation Day 6 and ending on Gestation Day 18 (Days 6, 9, 12, 15, and 18), maintained two more days, and then euthanized and necropsied on Gestation Day 20. Body weights was recorded for all animals on Gestation Days 5 (purpose of randomization), 6, 9, 12, 15, 18, and 20 (scheduled euthanasia). Food consumption by weight was recorded on Gestation Days 6, 9, 12, 15, 18, and 20 (scheduled termination).
At necropsy, the dams were examined visually for external abnormalities including palpable masses. The abdominal, thoracic, and cranial cavities and their contents were examined for abnormalities and findings will be recorded. The reproductive tract were examined to record the number of ovarian corpora lutea, the number and location of uterine implantation sites noting the position of the cervix, and the number of early resorptions, late resorptions, live fetuses, and dead fetuses. For dead fetuses and late resorptions, crown-to-rump length and weight were recorded, if possible, and the fetus was discarded. For viable fetuses, weight, sex, and grossly visible external abnormalities were recorded.

For series [3], the system named is Male Sprague Dawley rats on high fat diet. Briefly: 11 day rat DIO model (body weight, food intake, hematology, blood chemistries). The class given is in vivo. As to conditions: 264 h, read-out: DIO Rat 11-day weight loss vs vehicle. From the text:
The objective of this study design is to investigate the efficacy of disclosed compounds in an 11 day rat DIO model used to screen compounds for pharmacologic efficacy on endpoints related to obesity and metabolism. Effects on body weight, food intake, hematology and blood chemistries were the primary readouts of this study design. […] Rats were fed Research Diets D12451 (45% High Fat) and provided water ad libitum. Rats were received and housed in the facility for at least two or three weeks prior to start of test article administration. On Day −4 or −3, rats were randomized into study groups based on body weight and body weights were continued to be recorded daily for the duration of the study. Daily food intake was assessed starting on Study Day −2 by weighing the hopper including the food to avoid loss of food in transfer.
Compounds were formulated into a 100% DMSO stock (at 9 mg/mL) prior to the start, and further diluted into the target working concentration using the vehicle of 10% DMSO in water. Prior to test article administration, starting on Day −3 a dosing acclimation occured with all animals receiving a subcutaneous injection of vehicle (10% DMSO) only for 3 days. Starting on Day 1, test compounds or vehicle were administered based on individual body weight, subcutaneously, once a day for 11 days. All animals were sacrificed on Day 11, approximately 2 hours following the final dosing on Day 11. After sacrifice, whole blood was collected and analyzed for hematology and blood chemistry parameters.
Compounds were tested vs. vehicle at various doses (1.0, 0.5, 0.3, 0.1, 0.03 mpk sc (mg per kg animal weight delivered subcutaneously), and the results are shown in Table 2 below.

For a further series, the target named is recombinant human MetAP2 (Homo sapiens (Human), UniProt P50579). Briefly: recombinant human MetAP2 enzyme inhibition assay. The class given is biochemical. As to conditions: recombinant human MetAP2, MAS peptide substrate, 25 minutes at 25° C. The procedure:
Compounds are tested for their capacity to inhibit recombinant human MetAP2 activity using the following assay.
Flag tagged Human recombinant MetAP2 expressed and isolated for use as the enzyme source. 10 mM stock solutions of compounds were prepared in 100% DMSO and further diluted in 100% DMSO required concentration to 1 mM stocks. The stock compound solutions and DMSO vehicle controls were diluted to target final compound concentrations using assay buffer to a final concentration of 50 mM HEPES containing 100 mM NaCl, pH adjusted to 7.5. The MAS peptide was formulated to a 7.5 mM stock in distilled water and prior to use further diluted 1:4. […] 40 μl of enzyme was mixed with 100 μl of MnCl2 then further diluted in assay buffer to a final concentration of 16 μg/ml. To test for compound effect on MetAP2 enzyme activity, 5 μl of test compound, 10 μl of MAS substrate/amino acid oxidase mixture, 10 μl of MetAP2 was added to test wells in a 384 well black plate with blank wells containing no enzyme, replaced with 10 μl of assay buffer. All compounds were tested in duplicate on two occasions on the same day.
The plate was sealed with a TopSeal A cover and mixed briefly on an orbital mixer at 900 rpm. The plate was incubated for a further 25 minutes at 25° C. A 5× stock of Amplex buffer was prepared (0.25M sodium phosphate, pH 7.4) and stored at 4° C. […] 25 μl detection reagent was added to each well of the test plate, which was re-sealed and mixed briefly on an orbital shaker.

Setting [4] is: DIO mouse, 0.3 mpk sc, once a day for 10 days.
Where [5] appears, read: 6 mpk, subcutaneous, once every three days, Gestation Days 6-18, pregnant rats.
The mark [6] stands for this setting: DIO rat, 0.3 mpk sc, once a day for 11 days.
Where [7] appears, read: DIO rat, 1.0 mpk sc, once a day for 11 days.
Where [8] appears, read: DIO mouse, once a day for 10 days.

The structures appear in SMILES notation. pIC50: −log10 of the molar value. Counter-ions that a name gives are not always drawn. Like-named read-outs stand apart in the source and are kept apart here.

Sequence of recombinant human MetAP2 (P50579 whole entry): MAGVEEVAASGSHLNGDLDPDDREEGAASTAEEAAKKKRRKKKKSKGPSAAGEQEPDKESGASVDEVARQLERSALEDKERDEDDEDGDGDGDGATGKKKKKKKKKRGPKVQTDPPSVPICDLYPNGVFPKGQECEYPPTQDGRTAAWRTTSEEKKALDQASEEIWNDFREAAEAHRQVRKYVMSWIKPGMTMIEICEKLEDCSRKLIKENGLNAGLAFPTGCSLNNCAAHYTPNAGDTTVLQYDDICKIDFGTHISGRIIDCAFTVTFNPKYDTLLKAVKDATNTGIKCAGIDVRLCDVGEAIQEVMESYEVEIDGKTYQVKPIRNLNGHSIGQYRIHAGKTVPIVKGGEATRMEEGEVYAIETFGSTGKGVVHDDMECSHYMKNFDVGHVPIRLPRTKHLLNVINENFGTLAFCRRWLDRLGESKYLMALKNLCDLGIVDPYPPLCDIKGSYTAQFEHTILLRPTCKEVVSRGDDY

As to `CO[C@@H]1[C@H](OC(=O)/C=C/c2ccc(OCCN(C)C)cc2)CC[C@]2(CO2)[C@H]1[C@@]1(C)O[C@@H]1CC=C(C)C` [A, [(3R,6R,7S,8S)-7-methoxy-8-[(2R,3R)-2-methyl-3-(3-methylbut-2-enyl)oxiran-2-yl]-2-oxaspiro[2.5]octan-6-yl] (E)-3-[4-[2-(dimethylamino)ethoxy]phenyl]prop-2-enoate, reference compound], the inhibition in vivo at 0.3 mg/kg in series [1] (setting [4]) was determined as 18%; in series [3] (setting [6]) it was 20%. The “Rat Embryofetal @6 mpk” value in series [2] (setting [5]) is on record as “Positive”.

Take `CO[C@@H]1[C@H](OC(=O)N2CC(CCN3CCOCC3)C2)CC[C@]2(CO2)[C@H]1[C@@]1(C)O[C@@H]1CC=C(C)C` [Example 1, (3R,4S,5S,6R)-5-methoxy-4-((2R,3R)-2-methyl-3-(3-methylbut-2-en-1-yl)oxiran-2-yl)-1-oxaspiro[2.5]octan-6-yl 3-(2-morpholinoethyl)azetidine-1-carboxylate]: the inhibition in vivo at 0.3 mg/kg worked out at 16.8% in series [1] (setting [4]) and 5.7% in series [3] (setting [6]). In addition, in series [2] (setting [5]), the “Rat Embryofetal @6 mpk” value was “Negative”. The inhibition in vivo at 1 mg/kg in series [3] (setting [7]) was found to be 7.7%.

`CO[C@@H]1[C@H](OC(=O)N2CC(CCN3CC(F)(F)C3)C2)CC[C@]2(CO2)[C@H]1[C@@]1(C)O[C@@H]1CC=C(C)C` [Example 2, (3R,4S,5S,6R)-5-methoxy-4-((2R,3R)-2-methyl-3-(3-methylbut-2-enyl)oxiran-2-yl)-1-oxaspiro[2.5]octan-6-yl 3-(2-(3,3-difluoroazetidin-1-yl)ethyl)azetidine-1-carboxylate]: the inhibition in vivo at 0.1 mg/kg in series [1] (DIO mouse, 0.1 mpk sc, once a day for 10 days) came to 14.2%. The inhibition in vivo at 0.3 mg/kg was determined as 19.7% in series [1] (setting [4]) and 5.7% in series [3] (setting [6]). Besides, the inhibition in vivo at 1 mg/kg is 24.2% in series [1] (setting [8]) and 6.4% in series [3] (setting [7]). The “Rat Embryofetal @6 mpk” value in series [2] (setting [5]) was “Negative”.

Consider `CO[C@@H]1[C@H](OC(=O)N2CC(CCN3CC(O)C3)C2)CC[C@]2(CO2)[C@H]1[C@@]1(C)O[C@@H]1CC=C(C)C` [Example 6, (3R,4S,5S,6R)-5-methoxy-4-((2R,3R)-2-methyl-3-(3-methylbut-2-enyl)oxiran-2-yl)-1-oxaspiro[2.5]octan-6-yl 3-(2-(3-hydroxyazetidin-1-yl)ethyl)azetidine-1-carboxylate formate], for which the inhibition in vivo at 0.3 mg/kg in series [1] (Mus musculus, sc) is 11.8%. In addition, in series [2] (rat, in vivo), the “Rat Embryofetal @6 mpk” value is reported as “Positive”. Further, in series [3] (Rattus norvegicus, sc), the inhibition in vivo at 0.3 mg/kg is 0.8% and the inhibition in vivo at 1 mg/kg came to 4.6%.

In the case of `CO[C@@H]1[C@H](OC(=O)N2CC(CCN3CC4C(C3)C4(F)F)C2)CC[C@]2(CO2)[C@H]1[C@@]1(C)O[C@@H]1CC=C(C)C` (stereo partly drawn) [Example 22, (3R,4S,5S,6R)-5-methoxy-4-((2R,3R)-2-methyl-3-(3-methylbut-2-enyl)oxiran-2-yl)-1-oxaspiro[2.5]octan-6-yl 3-(2-(6,6-difluoro-3-azabicyclo[3.1.0]hexan-3-yl)ethyl)azetidine-1-carboxylate formate], the inhibition in vivo at 0.3 mg/kg in series [1] (Mus musculus, sc) turned out to be 14%. In addition, the “Rat Embryofetal @6 mpk” value in series [2] (rat, in vivo) was “Negative”.

Take `CCN(CC)CC[C@H]1CCN(C(=O)O[C@@H]2CC[C@]3(CO3)[C@@H]([C@@]3(C)O[C@@H]3CC=C(C)C)[C@@H]2OC)C1` [Example 52, (S)-((3R,4S,5S,6R)-5-methoxy-4-((2R,3R)-2-methyl-3-(3-methylbut-2-enyl)oxiran-2-yl)-1-oxaspiro[2.5]octan-6-yl) 3-(2-(diethylamino)ethyl)pyrrolidine-1-carboxylate]: the inhibition in vivo at 0.3 mg/kg in series [1] (setting [4]) worked out at 8.3%; in series [3] (setting [6]) it was 4%. In addition, the pIC50 at recombinant human MetAP2 is above 7.30.

`CCN(CC)CC[C@H]1CCN(C(=O)O[C@@H]2CC[C@]3(CO3)[C@@H]([C@@]3(C)O[C@@H]3CC=C(C)C)[C@@H]2OC)C1` [Example 53, (S)-((3R,4S,5S,6R)-5-methoxy-4-((2R,3R)-2-methyl-3-(3-methylbut-2-enyl)oxiran-2-yl)-1-oxaspiro[2.5]octan-6-yl) 3-(2-(diethylamino)ethyl)pyrrolidine-1-carboxylate]: the inhibition in vivo at 0.3 mg/kg was found to be 10.9% in series [1] (setting [4]) and 3% in series [3] (setting [6]). The negative-log IC50 (pIC50) on recombinant human MetAP2 was above 7.30.

Consider `CO[C@@H]1[C@H](OC(=O)N2CC(OC(=O)N3CCN(CC(F)(F)F)CC3)C2)CC[C@]2(CO2)[C@H]1[C@@]1(C)O[C@@H]1CC=C(C)C` [Example 81, 1-(((3R,4S,5S,6R)-5-methoxy-4-((2R,3R)-2-methyl-3-(3-methylbut-2-enyl)oxiran-2-yl)-1-oxaspiro[2.5]octan-6-yloxy)carbonyl)azetidin-3-yl 4-(2,2,2-trifluoroethyl)piperazine-1-carboxylate], for which the inhibition in vivo at 0.3 mg/kg in series [1] (setting [4]) was found to be 16.9%. The “Rat Embryofetal @6 mpk” value in series [2] (setting [5]) is recorded as “Positive”.

On to `CCNCCC1CN(C(=O)O[C@@H]2CC[C@]3(CO3)[C@@H]([C@@]3(C)O[C@@H]3CC=C(C)C)[C@@H]2OC)C1` [Example 121, (3R,4S,5S,6R)-5-methoxy-4-((2R,3R)-2-methyl-3-(3-methylbut-2-en-1-yl)oxiran-2-yl)-1-oxaspiro[2.5]octan-6-yl3-(2-(ethylamino)ethyl)azetidine-1-carboxylate], for which the inhibition in vivo at 0.3 mg/kg was found to be 7.5% in series [1] (setting [4]) and 5% in series [3] (setting [6]). The inhibition in vivo at 1 mg/kg in series [1] (setting [8]) amounted to 12.6%. The pIC50 on recombinant human MetAP2 is above 7.30.

In the case of `CCNC[C@H]1CCN1C(=O)O[C@@H]1CC[C@]2(CO2)[C@@H]([C@@]2(C)O[C@@H]2CC=C(C)C)[C@@H]1OC` [Example 123, (R)-((3R,4S,5S,6R)-5-methoxy-4-((2R,3R)-2-methyl-3-(3-methylbut-2-enyl)oxiran-2-yl)-1-oxaspiro[2.5]octan-6-yl) 2-((ethylamino)methyl)azetidine-1-carboxylate formate], the inhibition in vivo at 1 mg/kg in series [1] (setting [8]) worked out at 9.7%; in series [3] (setting [7]), 5.4%. Besides, on recombinant human MetAP2, the pIC50 is above 7.30. The inhibition in vivo at 0.3 mg/kg in series [3] (setting [6]) was 1%.

What is called pIC50 is −log10 of the IC50, conventionally taken in molar units.

The record behind these values is patent publication US9682965B2, “Fumagillol heterocyclic compounds and methods of making and using same” (Zafgen, Inc., priority 2015, dated 2017).
